Values quoted from earlier work as cited in patent US20030087843A1, “O-pyrazole glucoside SGLT2 inhibitors and method of use” (priority 2001, published 2003).

Experiments:
human SGLT2 = molecular target: T1, human SGLT2 (Homo sapiens, UniProt P31639); settings: read-out: Km for uptake of AMG
T1 sequence (P31639 1-672): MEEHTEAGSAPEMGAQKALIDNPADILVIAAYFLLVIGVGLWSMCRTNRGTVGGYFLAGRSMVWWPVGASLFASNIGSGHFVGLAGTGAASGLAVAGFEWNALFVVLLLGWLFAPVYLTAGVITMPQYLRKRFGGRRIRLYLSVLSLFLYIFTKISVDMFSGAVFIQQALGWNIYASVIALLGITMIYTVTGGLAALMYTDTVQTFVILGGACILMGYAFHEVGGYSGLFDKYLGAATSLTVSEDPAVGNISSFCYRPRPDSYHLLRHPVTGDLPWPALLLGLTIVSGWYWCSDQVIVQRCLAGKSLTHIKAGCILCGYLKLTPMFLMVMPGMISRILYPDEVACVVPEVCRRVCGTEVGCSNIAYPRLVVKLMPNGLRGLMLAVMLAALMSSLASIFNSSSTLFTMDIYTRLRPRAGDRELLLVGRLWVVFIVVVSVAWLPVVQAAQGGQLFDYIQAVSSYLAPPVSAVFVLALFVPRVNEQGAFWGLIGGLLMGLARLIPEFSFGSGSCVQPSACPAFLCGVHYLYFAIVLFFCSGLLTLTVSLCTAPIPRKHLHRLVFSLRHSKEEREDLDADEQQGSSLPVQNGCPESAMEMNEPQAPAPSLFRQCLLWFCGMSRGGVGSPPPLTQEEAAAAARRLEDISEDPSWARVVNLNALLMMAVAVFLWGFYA

human SGLT1 = molecular target: T2, human SGLT1 (Homo sapiens, UniProt P13866); settings: read-out: Km for uptake of AMG
T2 sequence (P13866 1-664): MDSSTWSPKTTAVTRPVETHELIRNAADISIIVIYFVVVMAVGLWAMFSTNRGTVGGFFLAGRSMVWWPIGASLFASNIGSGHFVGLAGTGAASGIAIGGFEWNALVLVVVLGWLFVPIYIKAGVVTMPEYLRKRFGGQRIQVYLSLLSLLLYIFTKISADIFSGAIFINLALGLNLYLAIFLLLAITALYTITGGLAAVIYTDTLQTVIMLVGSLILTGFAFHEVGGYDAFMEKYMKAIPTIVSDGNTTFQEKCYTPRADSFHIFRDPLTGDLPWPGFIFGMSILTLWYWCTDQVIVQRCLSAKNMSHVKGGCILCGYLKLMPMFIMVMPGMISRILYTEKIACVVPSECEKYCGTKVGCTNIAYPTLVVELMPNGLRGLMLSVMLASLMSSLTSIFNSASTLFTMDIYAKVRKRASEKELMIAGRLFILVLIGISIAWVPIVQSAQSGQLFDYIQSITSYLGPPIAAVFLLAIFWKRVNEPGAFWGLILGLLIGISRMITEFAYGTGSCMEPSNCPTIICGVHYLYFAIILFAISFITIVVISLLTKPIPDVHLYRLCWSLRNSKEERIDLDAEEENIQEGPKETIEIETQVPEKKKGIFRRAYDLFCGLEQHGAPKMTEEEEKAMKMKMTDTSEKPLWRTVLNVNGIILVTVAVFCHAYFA

[1] = test system: facilitative glucose transporters (GLUTs)
[2] = oral
[3] = normal animals, despite the presence of glycosuria
[4] = diabetic rodent models and one canine diabetes model

## CO[C@H]1O[C@H](CO)[C@@H](O)[C@H](O)[C@H]1O [AMG, α-methyl-D-glucopyranoside]
Human SGLT2
  Km: 1600 µM
Human SGLT1
  Km: 400 µM

## O=C(CCc1ccc(O)cc1)c1c(O)cc(O)cc1O [phloretin]
[1]
  inhibition of facilitated glucose transport: potent inhibitor

## O=C(CCc1ccc(O)cc1)c1c(O)cc(O)cc1O[C@@H]1O[C@H](CO)[C@@H](O)[C@H](O)[C@H]1O [phlorizin]
[2]
  hydrolysis in the gut: hydrolyzed in the gut to its aglycone phloretin
SGLT2 activity; [4]
  fasting and fed plasma glucose: lowering fasting and fed plasma glucose
  glucose excretion: promoting glucose excretion
  hypoglycemic side effects: without hypoglycemic side effects
SGLT2 activity; treatment for as long as two weeks
  adverse effects on plasma ion balance, renal function or renal morphology: No adverse effects
[3]
  hypoglycemic or other adverse effects: no hypoglycemic or other adverse effects
